{"source": "patent US20170306040A1", "about": "“COMBINATION THERAPY OF AN AFUCOSYLATED CD20 ANTIBODY WITH A CD22 ANTIBODY-DRUG CONJUGATE” (Hoffmann-La Roche Inc., priority 2013, published 2017)", "test_system": "WSU-DLCL2 lymphoma cells", "experimental": "The tumor cell line was routinely cultured in DMEM containing 10% FCS (Gibco) at 37° C. in a water-saturated atmosphere at 5% CO2. Passage 15 was used for transplantation in human CD16 transgenic Scid mice. […] Expression of CD20 and CD22 was confirmed on WSU-DLCL2 lymphoma cells by FACS. […] Mean fluorescence was measured using the plate protocol in the FACS CantoII (Software FACS Diva).\n60 SCID FcgR3 transgenic female mice (SCID CD16 tg mice), age 7-8 weeks at start of experiment (purchased from Charles River), were maintained under specific-pathogen-free condition with daily cycles of 12 h light/12 h darkness according to committed guidelines (GV-Solas; Felasa; TierschG). […] After arrival animals were maintained for one week to get accustomed to new environment and for observation. Continuous health monitoring was carried out on regular basis.\nAnimals were randomized for CD16 Expression on murine NK cells with an average of 70%. Treatment started 12 days after cell transplantation. […] The CD22-ADC was given once on study day 12 at the dose of 4 mg/kg. The antibody dilutions were prepared freshly from stock before use. The study was terminated on day 273.\nAnimals were controlled daily for clinical symptoms and detection of adverse effects. Termination criteria for animals were visible sickness: scruffy fur, arched back, heavy breathing, impaired locomotion, HLP (hind leg paralysis). Mice were sacrificed according to the termination criteria.\nSurvival data were statistically analyzed by pairwise Wilcoxon and pairwise log-rank test.\nThe diffuse large B-cell lymphoma cell line WSU-DLCL2 was intravenously inoculated (5×10^6 cells) into the tail vein of the human CD16 transgenic Scid mice. Mice were randomized for equal CD16 expression of NK cells and treatment started at day 12 after cell transplantation. […] Animals in the control group received PBS. All animals were controlled daily for clinical symptoms and detection of adverse effects and sacrificed according to the set termination criteria. Study termination was on study day 273. Survival data were represented with the survival curve (FIG. 1) and were statistically analyzed by Pairwise Wilcoxon and Pairwise Log-Rank test (FIG. 2)."}
{"substance": "GA101: afucosylated glycoengineered humanized B-Ly1 type II anti-CD20 IgG1 antibody", "values": [{"measurement": "Survival difference between GA101 and rituximab single agents", "setting": "Pairwise Wilcoxon test", "value": "no significant difference"}, {"measurement": "Survival difference from the vehicle group", "setting": "Pairwise Wilcoxon test", "value": "significantly different from the vehicle group except of GA101"}, {"measurement": "Median Survival", "setting": "WSU-DLCL2 i.v. in SCID CD16 tg mice, GA101/rituximab 30 mg/kg i.v. days 12, 19, 26, CD22-ADC 4 mg/kg i.v. once day 12, study end day 273", "value": 86.5, "unit": "days"}, {"measurement": "Animals tumor free at the end of the study", "setting": "day 273, 10 animals per group", "value": 1, "unit": "animals"}, {"measurement": "Overall Survival at end of experiment (day 273)", "setting": "surviving animals/10 per group, same dosing as the median survival study", "value": "1/10"}]}
